# Assay results reported in patent publication US7772246B2 (Pfizer Inc., priority 2007, dated 2010).
# Where two headings read alike, the source gives them in different places.
# Target: T1, b-Raf (Homo sapiens, UniProt P15056, V600E)
# T1 construct: endogenous in cells; host or cells: A2058 human melanoma cells
# Assay: Raf cellular assay (phospho-Mek1/2 ELISA in A2058 cells)
# Format: cell-based
# Details: human melanoma A2058 cells (b-Raf mutation), Mek1/2 Ser217/221 phosphorylation, 1 hour incubation, read-out: pMEK IC50
# Method in brief: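 A2058 melanoma cells (B-Raf mutant), seeded overnight in 10% FBS DMEM, were exposed to compounds (11-point 1:3 series, duplicate) for 1 h at 37 °C. Lysates were captured on anti-Mek1-coated plates and Mek1/2 Ser217/221 phosphorylation was read by anti-phospho-Mek1/2 ELISA, HRP/TMB, 450 nm.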
# T1 sequence (P15056 whole entry V600E): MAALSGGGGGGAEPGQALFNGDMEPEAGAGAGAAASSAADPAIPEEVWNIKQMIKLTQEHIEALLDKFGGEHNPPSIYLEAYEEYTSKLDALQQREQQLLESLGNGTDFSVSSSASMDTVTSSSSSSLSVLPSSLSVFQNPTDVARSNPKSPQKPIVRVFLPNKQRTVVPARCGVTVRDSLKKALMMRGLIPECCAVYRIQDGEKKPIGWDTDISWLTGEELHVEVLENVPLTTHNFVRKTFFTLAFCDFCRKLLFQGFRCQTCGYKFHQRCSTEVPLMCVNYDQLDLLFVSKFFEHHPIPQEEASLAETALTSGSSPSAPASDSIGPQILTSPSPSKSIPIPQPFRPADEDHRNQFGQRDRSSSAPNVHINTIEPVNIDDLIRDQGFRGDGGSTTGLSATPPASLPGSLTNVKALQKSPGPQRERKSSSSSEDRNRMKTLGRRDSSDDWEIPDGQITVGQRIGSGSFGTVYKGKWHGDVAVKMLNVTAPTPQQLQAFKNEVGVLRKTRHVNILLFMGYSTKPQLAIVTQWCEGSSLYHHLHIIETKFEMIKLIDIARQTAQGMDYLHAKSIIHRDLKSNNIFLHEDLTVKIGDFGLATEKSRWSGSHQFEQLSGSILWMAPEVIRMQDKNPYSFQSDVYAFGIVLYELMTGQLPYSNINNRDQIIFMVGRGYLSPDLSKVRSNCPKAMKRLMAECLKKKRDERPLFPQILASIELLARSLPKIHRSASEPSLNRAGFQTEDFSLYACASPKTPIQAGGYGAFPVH
Compound,IC50 (Table 3) [nM],IC50 (Table 2) [nM]
"Cc1n[nH]c2ncc(-c3nn(CC(F)F)cc3-c3ccnc(NC4CCOC4)n3)cc12 (stereo not drawn) [Example G-4, 4-[1-(2,2-difluoroethyl)-3-(3-methyl-1H-pyrazolo[3,4-b]pyridin-5-yl)-1H-pyrazol-4-yl]-N-(tetrahydrofuran-3-yl)pyrimidin-2-amine]",774,
Cn1ccc2ncc(-c3nn(CC(F)F)cc3-c3ccnc(NCCC#N)n3)cc21 [Example B-38],18.7,
"CC(C)n1cc(-c2ccnc(NC[C@H](C)O)n2)c(-c2cnc(N)nc2)n1 [Example B-42, (2S)-1-({4-[3-(2-aminopyrimidin-5-yl)-1-isopropyl-1H-pyrazol-4-yl]pyrimidin-2-yl}amino)propan-2-ol]",5650,
"COc1cc(-c2n[nH]cc2-c2ccnc(NCC(F)F)n2)cnc1N [Example B-68, 4-[3-(6-amino-5-methoxypyridin-3-yl)-1H-pyrazol-4-yl]-N-(2,2-difluoroethyl)-pyrimidin-2-amine]",25.6,
"COc1ccc(Nc2nccc(-c3cn(CC(F)F)nc3-c3cnc4[nH]ccc4c3)n2)cn1 [Example B-81, 4-[1-(2,2-difluoroethyl)-3-(1H-pyrrolo[2,3-b]pyridin-5-yl)-1H-pyrazol-4-yl]-N-(6-methoxypyridin-3-yl)pyrimidin-2-amine]",71.5,
"COc1cncc(-c2nn([C@@H]3CCOC3)cc2-c2ccnc(NCCC#N)n2)c1 [Example B-73, 3-[(4-{3-(5-methoxypyridin-3-yl)-1-[(3R)-tetrahydrofuran-3-yl]-1H-pyrazol-4-yl}pyrimidin-2-yl)amino]propanenitrile]",63.5,
"Cc1cn2cc(-c3nn(C(C)C)cc3-c3ccnc(NC[C@H](C)O)n3)cnc2n1 [Example B-8, (2S)-1-(4-(1-isopropyl-3-(2-methylimidazo[1,2-a]pyrimidin-6-yl)-1H-pyrazol-4-yl)pyrimidin-2-ylamino)propan-2-ol]",,8490
"Nc1nccc(-c2cn(C(F)F)nc2-c2cnc3[nH]cc(Cl)c3c2)n1 [Example B-43, 4-[3-(3-chloro-1H-pyrrolo[2,3-b]pyridin-5-yl)-1-(difluoromethyl)-1H-pyrazol-4-yl]pyrimidin-2-amine]",44.1,
"C[C@H](O)CNc1nccc(-c2cn(C3CC(F)(F)C3)nc2-c2cnc3[nH]cc(Cl)c3c2)n1 [Example B-17, (2S)-1-({4-[3-(3-chloro-1H-pyrrolo[2,3-b]pyridin-5-yl)-1-(3,3-difluorocyclobutyl)-1H-pyrazol-4-yl]pyrimidin-2-yl}amino)propan-2-ol]",61.9,
"C[C@H](O)CNc1nccc(-c2cn(C3COC3)nc2-c2cnc3[nH]cc(Cl)c3c2)n1 [Example B-99, (2S)-1-({4-[3-(3-chloro-1H-pyrrolo[2,3-b]pyridin-5-yl)-1-oxetan-3-yl-1H-pyrazol-4-yl]pyrimidin-2-yl}amino)propan-2-ol]",235,
"CCn1cc(-c2ccnc(NC[C@H](C)O)n2)c(-c2cnc3[nH]cc(Cl)c3c2)n1 [Example B-61, (2S)-1-({4-[3-(3-chloro-1H-pyrrolo[2,3-b]pyridin-5-yl)-1-ethyl-1H-pyrazol-4-yl]pyrimidin-2-yl}amino)propan-2-ol]",67.3,
"C[C@H](O)CNc1nccc(-c2cn(C(C)(C)C#N)nc2-c2cnc3[nH]cc(Cl)c3c2)n1 [Example B-34, 2-[3-(3-chloro-1H-pyrrolo[2,3-b]pyridin-5-yl)-4-(2-{[(2S)-2-hydroxypropyl]amino}pyrimidin-4-yl)-1H-pyrazol-1-yl]-2-methylpropanenitrile]",29.5,
"CC(C)n1cc(-c2ccnc(NC[C@H](C)O)n2)c(-c2cnc(N)c(O)c2)n1 [Example B-45, 2-amino-5-[4-(2-{[(2S)-2-hydroxypropyl]-amino}pyrimidin-4-yl)-1-isopropyl-1H-pyrazol-3-yl]pyridin-3-ol]",319,
"Nc1nccc(-c2cn(C3CCNCC3)nc2-c2cnc3[nH]cc(Cl)c3c2)n1 [Example B-63, 4-[3-(3-chloro-1H-pyrrolo[2,3-b]pyridin-5-yl)-1-piperidin-4-yl-1H-pyrazol-4-yl]pyrimidin-2-amine]",43.7,
"CC(=O)Nc1cc(C)c(-c2nn(CC(F)F)cc2-c2ccnc(NCCC#N)n2)cn1 [Example B-26, N-{5-[4-{2-[(2-cyanoethyl)amino]pyrimidin-4-yl}-1-(2,2-difluoroethyl)-1H-pyrazol-3-yl]-4-methylpyridin-2-yl}acetamide]",2200,
"C[C@H](O)CNc1nccc(-c2cn(CC3(C)COC3)nc2-c2cnc3[nH]cc(Cl)c3c2)n1 [Example B-98, (2S)-1-[(4-{3-(3-chloro-1H-pyrrolo[2,3-b]pyridin-5-yl)-1-[(3-methyloxetan-3-yl)methyl]-1H-pyrazol-4-yl}pyrimidin-2-yl)amino]propan-2-ol]",146,
"CC(C)n1cc(-c2ccnc(N)c2)c(-c2cnc3[nH]ccc3c2)n1 [Example H-2, 4-(1-isopropyl-3-(1H-pyrrolo[2,3-b]pyridin-5-yl)-1H-pyrazol-4-yl)pyridin-2-amine]",1020,
"CC(C)n1cc(-c2ccnc(NCCC#N)n2)c(-c2cccnc2)n1 [Example B-53, 3-{[4-(1-isopropyl-3-pyridin-3-yl-1H-pyrazol-4-yl)pyrimidin-2-yl]amino}-propanenitrile]",1320,
"FC(F)CNc1nccc(-c2cn(C3CCNCC3)nc2-c2cnc3[nH]cc(Cl)c3c2)n1 [Example B-77, 4-[3-(3-chloro-1H-pyrrolo[2,3-b]pyridin-5-yl)-1-piperidin-4-yl-1H-pyrazol-4-yl]-N-(2,2-difluoroethyl)pyrimidin-2-amine]",30.4,
"CC(C)n1cc(-c2ccnc(N)n2)c(-c2cnc3[nH]cc(Cl)c3c2)n1 [Example B-60, 4-[3-(3-chloro-1H-pyrrolo[2,3-b]pyridin-5-yl)-1-isopropyl-1H-pyrazol-4-yl]pyrimidin-2-amine]",44,

# The next lines start with the values.
IC50 (Table 3) [nM],IC50 (Table 2) [nM],Compound
4.94,,"Cc1n[nH]c2ncc(-c3nn(CC(F)F)cc3-c3ccnc(NCCC#N)n3)cc12 [Example B-91, 3-(4-(1-(2,2-difluoroethyl)-3-(3-methyl-1H-pyrazolo[3,4-b]pyridin-5-yl)-1H-pyrazol-4-yl)pyrimidin-2-ylamino)propanenitrile]"
6.93,,"N#CCCNc1nccc(-c2cn(CC(F)F)nc2-c2cnc3c(c2)CCN3)n1 [Example B-88, 3-(4-(1-(2,2-difluoroethyl)-3-(2,3-dihydro-1H-pyrrolo[2,3-b]pyridin-5-yl)-1H-pyrazol-4-yl)pyrimidin-2-ylamino)propanenitrile]"
6.86,,"COc1cc(-c2nn(C3CC3)cc2-c2ccnc(NCC(F)F)n2)cnc1N [Example B-59, 4-[3-(6-amino-5-methoxypyridin-3-yl)-1-cyclopropyl-1H-pyrazol-4-yl]-N-(2,2-difluoroethyl)pyrimidin-2-amine]"
5.24,,"COc1cc(-c2nn(C)cc2-c2ccnc(NCCC#N)n2)cnc1N [Example G-2, 3-({4-[3-(6-amino-5-methoxypyridin-3-yl)-1-methyl-1H-pyrazol-4-yl]pyrimidin-2-yl}amino)propanenitrile]"
8.15,,"CC(C)(C)n1cc(-c2ccnc(NCCC#N)n2)c(-c2cnc3c(c2)CCN3)n1 [Example B-72, 3-({4-[1-tert-butyl-3-(2,3-dihydro-1H-pyrrolo[2,3-b]pyridin-5-yl)-1H-pyrazol-4-yl]pyrimidin-2-yl}amino)propanenitrile]"
4.29,,"Cc1c[nH]c2ncc(-c3nn(CC(F)F)cc3-c3ccnc(NC[C@H](C)O)n3)cc12 [Example B-100, (2S)-1-({4-[1-(2,2-difluoroethyl)-3-(3-methyl-1H-pyrrolo[2,3-b]pyridin-5-yl)-1H-pyrazol-4-yl]pyrimidin-2-yl}amino)propan-2-ol]"
6.64,,"CC(C)n1cc(-c2ccnc(NCCC#N)n2)c(-c2cnc3c(c2)CCN3)n1 [Example B-20, 3-({4-[3-(2,3-dihydro-1H-pyrrolo[2,3-b]pyridin-5-yl)-1-isopropyl-1H-pyrazol-4-yl]pyrimidin-2-yl}amino)propanenitrile]"
16,,"COc1cncc(-c2nn(CC(F)F)cc2-c2ccnc(NCCC#N)n2)c1 [Example B-46, 3-({4-[1-(2,2-difluoroethyl)-3-(5-methoxypyridin-3-yl)-1H-pyrazol-4-yl]pyrimidin-2-yl}amino)propanenitrile]"
0.5,,"COc1nc(-c2nn(C(C)C)cc2-c2ccnc(NCCC#N)n2)cnc1N [Example B-31, 3-({4-[3-(5-amino-6-methoxypyrazin-2-yl)-1-isopropyl-1H-pyrazol-4-yl]pyrimidin-2-yl}amino)propanenitrile]"
9.46,,"Cc1c[nH]c2ncc(-c3nn(CC(F)F)cc3-c3ccnc(NCCO)n3)cc12 [Example B-105, 2-({4-[1-(2,2-difluoroethyl)-3-(3-methyl-1H-pyrrolo[2,3-b]pyridin-5-yl)-1H-pyrazol-4-yl]pyrimidin-2-yl}amino)ethanol]"
4.48,,"N#CCCNc1nccc(-c2cn(CC(F)F)nc2-c2cnc3[nH]ccc3c2)n1 [Example B-33, 3-({4-[1-(2,2-difluoroethyl)-3-(1H-pyrrolo[2,3-b]pyridin-5-yl)-1H-pyrazol-4-yl]pyrimidin-2-yl}amino)propanenitrile]"
3.26,,"CC(C)(CO)n1cc(-c2ccnc(NCCC#N)n2)c(-c2cnc3[nH]cc(F)c3c2)n1 [Example B-24, 3-({4-[3-(3-fluoro-1H-pyrrolo[2,3-b]pyridin-5-yl)-1-(2-hydroxy-1,1-dimethylethyl)-1H-pyrazol-4-yl]pyrimidin-2-yl}amino)propanenitrile]"
2.87,,"Cc1c[nH]c2ncc(-c3nn(C(C)(C)C)cc3-c3ccnc(NC[C@H](C)O)n3)cc12 [Example B-66, (2S)-1-({4-[1-tert-butyl-3-(3-methyl-1H-pyrrolo[2,3-b]pyridin-5-yl)-1H-pyrazol-4-yl]pyrimidin-2-yl}amino)propan-2-ol]"
